Reference: patent US20110312986A1, “Composition and Method for Treating Overactive Bladder” (ALLERGAN, INC., priority 2010, published 2011)
Where two headings read alike, the source gives them in different places.

Columns and labels:
clinical = settings: both, human, plasma, oral
[1] = Trospium in cerebrospinal fluid: permeation across the blood-brain barrier (Example 1); assay type: in vivo, human
Method: (§1) A single-center, single-blind, randomized, placebo-controlled, parallel group study was conducted to evaluate whether Trospium permeates across the human blood-brain barrier and whether Trospium could cause cognitive impairment.
For cerebrospinal fluid sampling at each pharmacokinetics time point, about 2.5 mL of cerebral spinal fluid was collected on Day 10 at 0 hr, 2 hr, 5 hr, 7 hr, 12 hr, and 24 hr post dose.

[2] = Steady-state plasma pharmacokinetics of Trospium in subjects 65 years or older with overactive bladder symptoms (Example 1); assay type: in vivo, human; settings: Day 10, 60 mg Trospium daily for 10 days
Method: as §1

[3] = Neuropsychology testing: HVLT-R and BVMT-R, reliable change index (Example 1); assay type: in vivo, human
Method: as §1
For neuropsychology testing, each subject underwent the Hopkins Verbal Learning Test-Revised (HVLT-R) and the Brief Visuospatial Memory Test-Revised (BVMT-R) on Days 0, 9, and 10. Pre-dose (Day 0) and post-dose (Day 10) results on the neuropsychology tests were compared using a reliable change index to assess a change in learning of memory.

[4] = through tubular secretion and glomerular filtration; cited from earlier work
[5] = for Trospium Ae,0-24 (amount excreted unchanged in urine) / Trospium Ae,0-24/Dose (percentage of dose excreted in urine) / Trospium CLss/F (oral clearance) / Tmax: steady state; for Tmax: Trospium Tmax
[6] = metabolite of Trospium; cited from earlier work
[7] = 60 mg Trospium with 500 mg Metformin
[8] = Glucophage/Sanctura XR regime (co-administered with 500 mg Metformin twice daily), N = 43
[9] = Trospium with Metformin versus Trospium alone
[10] = both, human, plasma, oral, 60 mg
[11] = column headed Glucophage ® Dosage Regime, N = 44, 60 mg Trospium daily for 10 days alone

Compound: CN(C)C(=N)N=C(N)N [Metformin, N,N-dimethylimidodicarbonimidic diamide]
- concentration at 11 hr (clinical): 155 ng/mL
- concentration at 15 hr (clinical): 83 ng/mL

Compound: O=C(OC1CC2CCC(C1)[N+]21CCCC1)C(O)(c1ccccc1)c1ccccc1.[Cl-] (stereo not shown) [Trospium, 3-(2-hydroxy-2,2-diphenylacetoxy) spiro[bicyclo[3.2.1]octane-8,1′-pyrrolidin]-1′-ium chloride]
- Trospium concentration in cerebrospinal fluid ([1]; 0 hr post dose, Day 10, 60 mg Trospium daily for 10 days): <40 pg/mL
- Trospium concentration in cerebrospinal fluid ([1]; 5 hr post dose, Day 10, 60 mg Trospium daily for 10 days): <40 pg/mL
- Trospium concentration in cerebrospinal fluid ([1]; 24 hr post dose, Day 10, 60 mg Trospium daily for 10 days): <40 pg/mL
- Trospium in cerebrospinal fluid, all 72 samples ([1]; Day 10, 0 to 24 hr post dose, detectable range 40 pg/mL): < 40 pg/mL
- concentration at 5 h ([1]; both sexes, human, cerebrospinal fluid, 5 hr post dose, Day 10, 60 mg Trospium daily for 10 days): < 0.04 ng/mL
- Crossing of the blood-brain barrier ([1]; conclusion from the cerebrospinal fluid levels): does not cross the blood-brain barrier
- Trospium concentration in plasma ([2]; 0 hr post dose): 522 pg/mL
- Trospium concentration in plasma ([2]; 5 hr post dose): 925 pg/mL
- Trospium concentration in plasma ([2]; 24 hr post dose): 649 pg/mL
- Time of peak plasma concentration post-dosing [2]: 5 h
- AUC(0-t) ([2]; both sexes, human, plasma, linear trapezoidal rule, read-out: AUC0-24, steady state): 18500 ng·h/mL
- Cmax ([2]; both sexes, human, plasma, read-out: Peak plasma concentration (Cmax)): 0.925 ng/mL
- Net drug effect on cognition (HVLT-R, BVMT-R) ([3]; Day 0 versus Day 10, one subject deteriorated on total recall in both tests): no meaningful net drug effect on cognition
- Cognitive impairment or memory loss ([3]; conclusion from the neuropsychology testing): does not cause cognitive impairment or memory loss
- Share of the absorbed dose excreted unchanged in the urine [4]: 60%
- Reduction of steady-state AUC0-24 of Trospium by co-administered Metformin [5, 7]: ~29%
- Reduction of steady-state Cmax of Trospium by co-administered Metformin [5, 7]: approximately 34%
- Trospium Ae,0-24 (amount excreted unchanged in urine) [5, 8]: 0.281 ± 0.156 mg
- Trospium Ae,0-24/Dose (percentage of dose excreted in urine) [5, 8]: 0.468 ± 0.260%
- Trospium CLss/F (oral clearance) [5, 8]: 4830 ± 2320 L/h
- Percentage Ratio and 90% CI of the Geometric Mean of AUC0-24 (Combination/Alone) [5, 9]: 70.8 (66.2-75.7) %
- Percentage Ratio and 90% CI of the Geometric Mean of Cmax (Combination/Alone) [5, 9]: 66.3 (61.0-72.0) %
- AUC(0-t) [5, 10]: 22.7 ng·h/mL
- Cmax [5, 10]: 1.87 ng/mL
- concentration at 0 hr [5, 10]: 0.676 ng/mL
- concentration at 1 hr [5, 10]: 0.831 ng/mL
- concentration at 2 hr [5, 10]: 1.36 ng/mL
- concentration at 3 hr [5, 10]: 1.57 ng/mL
- concentration at 4 hr [5, 10]: 1.54 ng/mL
- concentration at 5 hr [5, 10]: 1.53 ng/mL
- concentration at 6 hr [5, 10]: 1.66 ng/mL
- concentration at 8 hr [5, 10]: 1.12 ng/mL
- concentration at 10 hr [5, 10]: 0.878 ng/mL
- concentration at 12 hr [5, 10]: 0.781 ng/mL
- concentration at 16 hr [5, 10]: 0.676 ng/mL
- concentration at 24 hr [5, 10]: 0.655 ng/mL
- Tmax ([5]; both, human, plasma, oral, 60 mg, column headed Glucophage ® Dosage Regime, N = 44, 60 mg Trospium daily for 10 days alone): ~4.42 h
- Tmax ([5]; both, human, plasma, oral, Glucophage/Sanctura XR regime (co-administered with 500 mg Metformin twice daily), N = 43): ~4 h
- CL renal ([5]; both, human, urine and plasma, oral, 60 mg): 307 mL/min
- Trospium Ae,0-24 (amount excreted unchanged in urine) [5, 11]: 0.400 ± 0.247 mg
- Trospium Ae,0-24/Dose (percentage of dose excreted in urine) [5, 11]: 0.667 ± 0.411%
- Trospium CLss/F (oral clearance) [5, 11]: 3510 ± 1920 L/h
- Reduction in percentage of Trospium dose excreted in urine on co-administration of Metformin ([5]; p value<0.0001): 30%

Compound: OC1C[C@H]2CC[C@@H](C1)[N+]21CCCC1 (stereo partly shown) [azoniaspironortropanol]
- Pharmacological activity of the metabolite [6]: pharmacologically inactive
